For the assay, the system named is COS-7. As to the kind of experiment: Gene transfer (GFP expression, luciferase activity) versus commercial agents (Example 5). It is filed as cell-based. The following applies: COS-7 adherent cells; compared with Lipofectamine LTX and FuGENE HD. The method, then: pEGFP-C1 expressing a green fluorescent protein was used as a gene transfer plasmid; and adherent cells COS-7 and Hela-S3, and non-adherent cells K562, which were established cell lines, were used as target cells. Lipoplexes were individually prepared using DL-U2. Then, gene transfer was performed.
(COS7 cells: 2.0×10^4 cells/well·DMEM+10% FBS (Pe/St) 500 μl)
(i) A 20 mM Tris-HCl (pH 7.4) buffer was dispensed into three tubes at 35.5 μl (for NP ratio=6) for each of two tubes, and 23 μl (for NP ratio=8) for the remaining tube.
(ii) 1.0 μg of plasmid DNA (pCAG-GFP) was added to each of the three tubes prepared in step (i) at 2 μl (1.0 μg), and the contents were stirred.
(iii) A DL-U2 liposome solution was added to the three tubes prepared in step (ii) at 37.5 μl (N/P ratio=6) for each of two tubes, and 50 μl (N/P ratio=8) for the remaining tube.
(iv) 25 μl of an Opti-MEM (registered trademark) I Reduced-Serum Medium was further added, and the whole was thoroughly mixed and allowed to stand at room temperature for 5 minutes.
(v) 100 μl of the DL-plasmid DNA complex solution (N/P ratio=6) was added and mixed with the COS7 cells. […]
(vii) 48 hours later, luciferase activity was measured according to the protocol of the luciferase assay system (Promega, E1501) (relative values based on the activity of LTX defined as 1 were graphed).

Molecules are shown by their SMILES.

Consider `CCCCCCCC/C=C\CCCCCCCCN(CCCCCCCC/C=C\CCCCCCCC)CCC(=O)NCCN(CCC(=O)NCCN)CCC(=O)NCCN` (racemic) [DL-G1-U2], for which the gene transfer activity result is given as “excellent gene transfer activity”.

The values are drawn from patent US8557875B2, “Gene transfer agent composition containing polyamidoamine dendron” (Public University Corporation Osaka Prefecture University, priority 2009, dated 2013).
